Laboratory results: patent publication US20230149333A1, “COMPOSITIONS AND USES OF LOCALLY APPLIED SYNTHETIC AMINO ACID POLYMERS FOR PREVENTION AND TREATMENT OF VIRAL INFECTIONS” (Amicrobe, Inc., priority 2020, published 2023)

What was measured:
[1] = system: Influenza A H1N1 (strain A/WS/33); assay: Virucidal Suspension Test (In-Vitro Time-Kill method) based upon ASTM E1052-20
Description: (§1) The antiviral activities of Composition A and Composition B were evaluated by challenging them with two different viruses, Coronavirus (strain OC43, ZeptoMetrix Corp. #0810024CF) and Influenza A H1N1 (strain A/WS/33, ATCC #VR-1520). A Virucidal Suspension Test (In-Vitro Time-Kill method) based upon the ASTM E1052-20, “Standard Practice to Assess the Activity of Microbicides against Viruses in Suspension” was used. The percent and log10 reductions from the initial populations of the viral strains were determined following exposure to Compositions A and B at two different exposure times (2 minutes and 10 minutes).

[2] = system: Coronavirus (strain OC43); assay: as above
Description: as §1

“Poly(L-lysine hydrochloride)-b-poly(D,L-leucine) [Composition A]” showed a Log10 reduction ([1]; 10 µg/mL, 2 min exposure) of 0.25 log10, a Percent reduction ([1]; 10 µg/mL, 2 min exposure) of 43.77% and a Log10 reduction ([1]; 10 µg/mL, 10 min exposure) of 0.50 log10. For the same substance, the Percent reduction ([1]; 10 µg/mL, 10 min exposure) was 68.38%, the Log10 reduction ([1]; 100 µg/mL, 2 min exposure) was 0.75 log10 and the Percent reduction ([1]; 100 µg/mL, 2 min exposure) was 82.22%. For the same substance, the Log10 reduction ([1]; 100 µg/mL, 10 min exposure) was 0.75 log10, the Percent reduction ([1]; 100 µg/mL, 10 min exposure) was 82.22% and the Log10 reduction ([1]; 1000 µg/mL, 2 min exposure) was 0.75 log10. It also gave a Percent reduction ([1]; 1000 µg/mL, 2 min exposure) of 82.22%, a Log10 reduction ([1]; 1000 µg/mL, 10 min exposure) of 0.50 log10 and a Percent reduction ([1]; 1000 µg/mL, 10 min exposure) of 68.38%. For the same substance, the Log10 reduction ([2]; 10 µg/mL, 2 min exposure) was 0.25 log10, the Percent reduction ([2]; 10 µg/mL, 2 min exposure) was 43.77% and the Log10 reduction ([2]; 10 µg/mL, 10 min exposure) was 0.5 log10. For the same substance, the Percent reduction ([2]; 10 µg/mL, 10 min exposure) was 68.38%, the Log10 reduction ([2]; 100 µg/mL, 2 min exposure) was 0.25 log10 and the Percent reduction ([2]; 100 µg/mL, 2 min exposure) was 43.77%. It also gave a Log10 reduction ([2]; 100 µg/mL, 10 min exposure) of 0.5 log10, a Percent reduction ([2]; 100 µg/mL, 10 min exposure) of 68.38% and a Log10 reduction ([2]; 1000 µg/mL, 2 min exposure) of 0.5 log10. It also gave a Percent reduction ([2]; 1000 µg/mL, 2 min exposure) of 68.38%, a Log10 reduction ([2]; 1000 µg/mL, 10 min exposure) of 1 log10 and a Percent reduction ([2]; 1000 µg/mL, 10 min exposure) of 90%.
Work on “Poly(L-lysine hydrochloride)-b-poly(L-leucine) [Composition B]” yielded a Log10 reduction ([1]; 10 µg/mL, 2 min exposure) of 0.75 log10, a Percent reduction ([1]; 10 µg/mL, 2 min exposure) of 82.22% and a Log10 reduction ([1]; 10 µg/mL, 10 min exposure) of 0.75 log10. For the same substance, the Percent reduction ([1]; 10 µg/mL, 10 min exposure) was 82.22%, the Log10 reduction ([1]; 100 µg/mL, 2 min exposure) was 0.50 log10 and the Percent reduction ([1]; 100 µg/mL, 2 min exposure) was 68.38%. It also gave a Log10 reduction ([1]; 100 µg/mL, 10 min exposure) of 0.50 log10, a Percent reduction ([1]; 100 µg/mL, 10 min exposure) of 68.38% and a Log10 reduction ([1]; 1000 µg/mL, 2 min exposure) of 0.00 log10. For the same substance, the Percent reduction ([1]; 1000 µg/mL, 2 min exposure) was 0.00%, the Log10 reduction ([1]; 1000 µg/mL, 10 min exposure) was 1.00 log10 and the Percent reduction ([1]; 1000 µg/mL, 10 min exposure) was 90.00%. The Log10 reduction ([2]; 10 µg/mL, 2 min exposure) was 0.25 log10, the Percent reduction ([2]; 10 µg/mL, 2 min exposure) was 43.77% and the Log10 reduction ([2]; 10 µg/mL, 10 min exposure) was 1 log10. It also gave a Percent reduction ([2]; 10 µg/mL, 10 min exposure) of 90%, a Log10 reduction ([2]; 100 µg/mL, 2 min exposure) of 0.75 log10 and a Percent reduction ([2]; 100 µg/mL, 2 min exposure) of 82.22%. It also gave a Log10 reduction ([2]; 100 µg/mL, 10 min exposure) of 0.75 log10, a Percent reduction ([2]; 100 µg/mL, 10 min exposure) of 82.22% and a Log10 reduction ([2]; 1000 µg/mL, 2 min exposure) of 0.5 log10. For the same substance, the Percent reduction ([2]; 1000 µg/mL, 2 min exposure) was 68.38%, the Log10 reduction ([2]; 1000 µg/mL, 10 min exposure) was 0.75 log10 and the Percent reduction ([2]; 1000 µg/mL, 10 min exposure) was 82.22%.
